Values of other authors as cited in patent US12661367B2, “Streptomyces spororaveus strain and a new antibiotics against bacteria and fungi” (National Taipei University of Technology, priority 2022, dated 2026).

Experiments:
[1] = orally used

Structure (SMILES): C[C@@H]1C/C=C/C=C/C=C/C=C/[C@H](O[C@@H]2O[C@H](C)[C@@H](O)[C@H](N)[C@@H]2O)C[C@@H]2O[C@](O)(C[C@@H](O)C[C@H]3O[C@@H]3/C=C/C(=O)O1)C[C@H](O)[C@H]2C(=O)O [natamycin]
- solubility in water: nearly insoluble in water
- bioavailability [1]: low bioavailability
